From ChEMBL document CHEMBL1134658 (J Med Chem, 2001)

These compounds were tested against Cytochrome P450 2C9 (Homo sapiens, UniProt P11712) (assay: Inhibitory effect on human recombinant liver cytochrome P450 2C9 expressed in yeast strain).
Sequence of Cytochrome P450 2C9 (P11712 whole entry): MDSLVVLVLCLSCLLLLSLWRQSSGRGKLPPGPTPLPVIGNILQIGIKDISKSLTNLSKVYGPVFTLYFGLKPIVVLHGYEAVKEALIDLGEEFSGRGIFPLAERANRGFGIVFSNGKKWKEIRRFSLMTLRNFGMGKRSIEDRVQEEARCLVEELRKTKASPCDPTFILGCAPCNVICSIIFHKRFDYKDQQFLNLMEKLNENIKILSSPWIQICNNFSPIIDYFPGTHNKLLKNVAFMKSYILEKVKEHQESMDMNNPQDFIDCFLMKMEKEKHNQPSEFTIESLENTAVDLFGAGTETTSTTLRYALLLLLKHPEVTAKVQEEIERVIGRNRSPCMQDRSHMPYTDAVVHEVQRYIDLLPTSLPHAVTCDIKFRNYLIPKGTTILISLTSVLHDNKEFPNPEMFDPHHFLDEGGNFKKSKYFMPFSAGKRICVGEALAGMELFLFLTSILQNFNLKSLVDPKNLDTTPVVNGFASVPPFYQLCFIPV

| SMILES | IC50 |
| --- | --- |
| CCCN(c1ccnn1-c1ccccc1)S(=O)(=O)c1ccc(C)cc1 | 20 µM |
| Cc1ccc(S(=O)(=O)N(C)c2ccnn2-c2ccccc2)cc1 | 10 µM |
| CCCN(c1ccnn1-c1ccccc1)S(=O)(=O)c1ccc(N)cc1 | 55 µM |
| CCN(c1ccnn1-c1ccccc1)S(=O)(=O)c1ccc(N)cc1 | 90 µM |
| Nc1ccc(S(=O)(=O)N(Cc2ccccc2)c2ccnn2-c2ccccc2)cc1 | 55 µM |
| CN(c1ccnn1-c1ccccc1)S(=O)(=O)c1ccc(N)cc1 | 100 µM |
| C=CCc1ccc(S(=O)(=O)N(C)c2ccnn2-c2ccccc2)cc1 | > 200 µM |
| O=[N+]([O-])c1cccc(-c2ccc(S(=O)(=O)N(CCO)c3ccnn3-c3ccccc3)cc2)c1 | 20 µM |
| CC(C)N(c1ccnn1-c1ccccc1)S(=O)(=O)c1ccc(N)cc1 | 80 µM |
| CCCCN(c1ccnn1-c1ccccc1)S(=O)(=O)c1ccc(N)cc1 | 50 µM |
| C=CCc1ccc(S(=O)(=O)Nc2ccnn2-c2ccccc2)cc1 | 1 µM |

Each compound was assayed against T1, Cytochrome P450 2C18 (Homo sapiens, UniProt P33260) (assay: Inhibitory effect on human recombinant liver cytochrome P450 2C18 expressed in yeast strain).
T1 sequence (P33260 whole entry): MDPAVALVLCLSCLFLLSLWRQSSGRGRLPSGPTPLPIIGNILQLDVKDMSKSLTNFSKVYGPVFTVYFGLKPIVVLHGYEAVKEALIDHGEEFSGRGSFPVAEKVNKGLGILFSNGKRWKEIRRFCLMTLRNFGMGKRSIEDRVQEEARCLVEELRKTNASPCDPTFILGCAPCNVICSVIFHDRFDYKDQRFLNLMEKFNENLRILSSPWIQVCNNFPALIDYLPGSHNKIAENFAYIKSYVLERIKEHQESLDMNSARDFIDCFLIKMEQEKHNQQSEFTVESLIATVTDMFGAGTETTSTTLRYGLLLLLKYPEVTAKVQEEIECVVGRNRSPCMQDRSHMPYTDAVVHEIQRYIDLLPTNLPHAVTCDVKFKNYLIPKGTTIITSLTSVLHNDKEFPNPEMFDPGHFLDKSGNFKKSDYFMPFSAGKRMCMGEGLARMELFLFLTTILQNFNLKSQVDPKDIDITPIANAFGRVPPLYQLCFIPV

| SMILES | IC50 |
| --- | --- |
| CCCN(c1ccnn1-c1ccccc1)S(=O)(=O)c1ccc(C)cc1 | 20 µM |
| Cc1ccc(S(=O)(=O)N(C)c2ccnn2-c2ccccc2)cc1 | 12 µM |
| CCCN(c1ccnn1-c1ccccc1)S(=O)(=O)c1ccc(N)cc1 | 8 µM |
| CCN(c1ccnn1-c1ccccc1)S(=O)(=O)c1ccc(N)cc1 | 7 µM |
| Nc1ccc(S(=O)(=O)N(Cc2ccccc2)c2ccnn2-c2ccccc2)cc1 | 7 µM |
| NCCc1ccc(S(=O)(=O)N(CCCO)c2ccnn2-c2ccccc2)cc1 | 65 µM |
| CN(c1ccnn1-c1ccccc1)S(=O)(=O)c1ccc(N)cc1 | 15 µM |
| C=CCc1ccc(S(=O)(=O)N(C)c2ccnn2-c2ccccc2)cc1 | 10 µM |
| O=[N+]([O-])c1cccc(-c2ccc(S(=O)(=O)N(CCO)c3ccnn3-c3ccccc3)cc2)c1 | 9 µM |
| CC(C)N(c1ccnn1-c1ccccc1)S(=O)(=O)c1ccc(N)cc1 | 3 µM |
| CCCCN(c1ccnn1-c1ccccc1)S(=O)(=O)c1ccc(N)cc1 | 6 µM |
| Nc1cccc(-c2ccc(S(=O)(=O)Nc3ccnn3-c3ccccc3)cc2)c1 | 20 µM |
| O=[N+]([O-])c1cccc(-c2ccc(S(=O)(=O)N(CCCO)c3ccnn3-c3ccccc3)cc2)c1 | 8 µM |
| C=CCc1ccc(S(=O)(=O)Nc2ccnn2-c2ccccc2)cc1 | 150 µM |
| O=[N+]([O-])c1cccc(-c2ccc(S(=O)(=O)N(CCCCO)c3ccnn3-c3ccccc3)cc2)c1 | 4 µM |
| Nc1ccc(S(=O)(=O)N(CCCO)c2ccnn2-c2ccccc2)cc1 | 30 µM |
| Nc1ccc(S(=O)(=O)Nc2ccnn2-c2ccccc2)cc1 [SULFAPHENAZOLE] | 60 µM |

Each compound was assayed against Cytochrome P450 2C19 (Homo sapiens, UniProt P33261) (assay: Inhibitory effect on human recombinant liver cytochrome P450 2C19 expressed in yeast strain).
Sequence of Cytochrome P450 2C19 (P33261 whole entry): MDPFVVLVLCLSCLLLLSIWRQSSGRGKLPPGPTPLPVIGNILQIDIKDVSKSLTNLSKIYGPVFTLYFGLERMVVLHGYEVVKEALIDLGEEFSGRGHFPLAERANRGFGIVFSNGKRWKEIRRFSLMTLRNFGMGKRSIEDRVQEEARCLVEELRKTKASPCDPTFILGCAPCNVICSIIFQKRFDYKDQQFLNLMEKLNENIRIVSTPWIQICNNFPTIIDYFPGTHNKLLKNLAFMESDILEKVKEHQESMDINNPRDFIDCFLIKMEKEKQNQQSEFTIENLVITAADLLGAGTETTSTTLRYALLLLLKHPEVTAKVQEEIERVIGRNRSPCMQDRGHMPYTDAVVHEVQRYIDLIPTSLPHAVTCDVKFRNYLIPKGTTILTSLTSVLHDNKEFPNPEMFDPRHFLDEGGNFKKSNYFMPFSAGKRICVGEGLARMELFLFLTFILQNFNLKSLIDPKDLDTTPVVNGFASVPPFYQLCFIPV

| SMILES | IC50 |
| --- | --- |
| CCCN(c1ccnn1-c1ccccc1)S(=O)(=O)c1ccc(C)cc1 | 10 µM |
| Cc1ccc(S(=O)(=O)N(C)c2ccnn2-c2ccccc2)cc1 | 20 µM |
| CCCN(c1ccnn1-c1ccccc1)S(=O)(=O)c1ccc(N)cc1 | 250 µM |
| CCN(c1ccnn1-c1ccccc1)S(=O)(=O)c1ccc(N)cc1 | 225 µM |
| Nc1ccc(S(=O)(=O)N(Cc2ccccc2)c2ccnn2-c2ccccc2)cc1 | 45 µM |
| CN(c1ccnn1-c1ccccc1)S(=O)(=O)c1ccc(N)cc1 | 200 µM |
| C=CCc1ccc(S(=O)(=O)N(C)c2ccnn2-c2ccccc2)cc1 | 20 µM |
| O=[N+]([O-])c1cccc(-c2ccc(S(=O)(=O)N(CCO)c3ccnn3-c3ccccc3)cc2)c1 | 165 µM |
| CC(C)N(c1ccnn1-c1ccccc1)S(=O)(=O)c1ccc(N)cc1 | 130 µM |
| CCCCN(c1ccnn1-c1ccccc1)S(=O)(=O)c1ccc(N)cc1 | 60 µM |
| C=CCc1ccc(S(=O)(=O)Nc2ccnn2-c2ccccc2)cc1 | 450 µM |

What follows are compounds tested against T2, Cytochrome P450 2C8 (Homo sapiens, UniProt P10632) (assay: Inhibitory effect on human recombinant liver Cytochrome P450 2C8 expressed in yeast strain).
T2 sequence (P10632 whole entry): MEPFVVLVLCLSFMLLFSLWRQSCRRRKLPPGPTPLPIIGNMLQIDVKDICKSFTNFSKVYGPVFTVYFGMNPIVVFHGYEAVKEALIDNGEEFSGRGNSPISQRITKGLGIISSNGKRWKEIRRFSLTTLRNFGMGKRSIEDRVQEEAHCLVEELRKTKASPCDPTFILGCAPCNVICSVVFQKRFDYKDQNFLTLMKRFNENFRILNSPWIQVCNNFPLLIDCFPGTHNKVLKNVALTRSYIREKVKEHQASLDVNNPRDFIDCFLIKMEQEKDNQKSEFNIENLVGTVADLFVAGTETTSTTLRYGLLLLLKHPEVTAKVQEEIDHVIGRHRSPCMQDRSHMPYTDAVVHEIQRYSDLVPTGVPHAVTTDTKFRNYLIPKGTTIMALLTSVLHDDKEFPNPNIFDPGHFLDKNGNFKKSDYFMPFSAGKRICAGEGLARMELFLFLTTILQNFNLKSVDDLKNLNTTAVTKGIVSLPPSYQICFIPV

| SMILES | IC50 |
| --- | --- |
| CCCN(c1ccnn1-c1ccccc1)S(=O)(=O)c1ccc(C)cc1 | 15 µM |
| Cc1ccc(S(=O)(=O)N(C)c2ccnn2-c2ccccc2)cc1 | 180 µM |
| CCCN(c1ccnn1-c1ccccc1)S(=O)(=O)c1ccc(N)cc1 | 8 µM |
| CCN(c1ccnn1-c1ccccc1)S(=O)(=O)c1ccc(N)cc1 | 13 µM |
| Nc1ccc(S(=O)(=O)N(Cc2ccccc2)c2ccnn2-c2ccccc2)cc1 | 15 µM |
| NCCc1ccc(S(=O)(=O)N(CCCO)c2ccnn2-c2ccccc2)cc1 | > 250 µM |
| CN(c1ccnn1-c1ccccc1)S(=O)(=O)c1ccc(N)cc1 | 50 µM |
| C=CCc1ccc(S(=O)(=O)N(C)c2ccnn2-c2ccccc2)cc1 | 20 µM |
| O=[N+]([O-])c1cccc(-c2ccc(S(=O)(=O)N(CCO)c3ccnn3-c3ccccc3)cc2)c1 | > 250 µM |
| CC(C)N(c1ccnn1-c1ccccc1)S(=O)(=O)c1ccc(N)cc1 | 30 µM |
| CCCCN(c1ccnn1-c1ccccc1)S(=O)(=O)c1ccc(N)cc1 | 4 µM |
| Nc1cccc(-c2ccc(S(=O)(=O)Nc3ccnn3-c3ccccc3)cc2)c1 | 8 µM |
| O=[N+]([O-])c1cccc(-c2ccc(S(=O)(=O)N(CCCO)c3ccnn3-c3ccccc3)cc2)c1 | > 250 µM |
| C=CCc1ccc(S(=O)(=O)Nc2ccnn2-c2ccccc2)cc1 | 10 µM |
| O=[N+]([O-])c1cccc(-c2ccc(S(=O)(=O)N(CCCCO)c3ccnn3-c3ccccc3)cc2)c1 | > 250 µM |
| Nc1ccc(S(=O)(=O)N(CCCO)c2ccnn2-c2ccccc2)cc1 | 22 µM |
| Nc1ccc(S(=O)(=O)Nc2ccnn2-c2ccccc2)cc1 [SULFAPHENAZOLE] | 130 µM |
